These results are taken from patent US7408022B2, “Composition and method for increasing apoptosis in cancer cells” (Celtek Bioscience, LLC, priority 2004, dated 2008).

Peptide text beside a SMILES is read from it.

In series [1] the test system is DU145 cells. Put plainly: TUNEL assay. It counts as cell-based, Human. The settings on record: peptide 30 min, then cisplatin 5 μg/ml 16 h; CB5003 40 μM, CB5002 72 μM, CB5007 30 μM. As to the method: DU145 cells were grown on 8-well chamber slides to a confluence of 70-80%. The cells were then incubated with different concentrations of peptides or diluent for 30 min at 37° C. followed by the treatment with cisplatin (5 μg/ml) or diluent for an additional 16 h. The cells were air-dried and fixed in 4% paraformaldehyde at room temperature for 1 h. The cells were then washed with PBS and permeabilized with permeabilization solution (0.1% Triton X-100 in 0.1% sodium citrate) for 2 min on ice. Apoptosis was detected using TUNEL method “in situ cell death detection POD” according to the manufacturer's instructions (Roche, Indianapolis, Ind.). The fluorescein-labeled DNA strand breaks due to apoptosis were visualized under light microscope (Microstar IV, Reichard, Buffalo, N.Y.) by using anti-fluorescein antibody conjugated POD (peroxidase) at ×40 magnification. The images were analyzed using a Pixera digital camera.

Series [2] relates to DU145 cells. Put plainly: Flow cytometric analysis of annexin V/PI stained cells. It counts as cell-based, Human. The settings on record: for induction of apoptosis by co-treatment with cisplatin (flow cytometry): CB5005 30 μM, CB5003 72 μM, CB5002 72 μM, cisplatin 5 μg/ml. The procedure:
PCA cells were grown on 60-mm dishes to a confluence of 50-60%. These cells were incubated with different concentrations of peptides for 30 min at 37° C. followed by the treatment with TNF-α (10 ng/ml), cisplatin (2-30 μg/ml), etoposide (2-20 μg/ml) or diluent for an additional 21 h at 37° C. Phosphatidylserine exposure on apoptotic cells was measured by their ability to bind Annexin V. Specifically, cells were harvested by trypsinization. The trypsinized cells, media and PBS washes were combined and cells collected by centrifugation. […] Stained cells were analyzed by flow cytometry. A minimum 20,000 events for each sample was measured.
For orientation: A flow cytometer gives signals particle by particle.

For series [3], the system named is NF-κB nuclear translocation in DU145 cells. Put plainly: Western blot analysis of NF-κB p50 protein in nuclear extracts. The class given is cell-based, Human. The settings on record: CB5005 30 μM, CB5003 90 μM, CB5007 30 μM for 30 min, then TNF-α 10 ng/ml 1 h. The procedure:
(§1) PCA cells were grown on 60-mm dishes to a confluence of 70-80%. The cells were incubated with different concentrations of peptides for 30 min at 37° C., followed by treatment with TNF-α (10 ng/ml) for an additional 1 h at 37° C., as indicated, or incubated with peptide alone for 16 hours. After the treatment, cells were washed with ice-cold PBS and lysed in 500 μl of buffer A (10 mM HEPES, pH 7.9, 10 mM KCl, 0.1 mM EDTA, 0.1 mM EGTA, 0.4% Nonidet P-40, 1 mM DTT, 0.5 mM PMSF and 1 μg/ml each of leupeptin, aprotinin, pepstatin, chymostatin and antipain) on ice for 10 min. Nuclei were pelleted by centrifugation at high speed and washed with 500 μl of buffer A. Nuclei were then resuspended in 40 μl of buffer B (20 mM HEPES, pH 7.9, 400 mM NaCl, 1 mM EDTA, 1 mM EGTA, 1 mM DTT, 1 mM PMSF and 1 μg/ml each of leupeptin, aprotinin, pepstatin, chymostatin and antipain). The protein concentration of nuclear extract was determined using Pierce BCA protein assay and equalized among samples using buffer B.
(§2) Equal amounts of proteins were heat-treated in 2×SDS sample loading buffer at 100° C. for 5 minutes and fractionated by 10% SDS polyacrylamide electrophoresis. The proteins were transferred to nitrocellulose paper. After blocking with 5% nonfat milk in TBS (10 mM Tris-HCl, pH 7.6, 70 mM NaCl and 0.05% Tween 20) for 30 minutes, nuclear NFκB p50 was detected by using an anti-p50 IgG antibody (1:5000), (Upstate, Lake Placid, N.Y.). The primary antibody was visualized with horseradish peroxidase-coupled secondary antibody by using ECL western blotting system as described in manufacturer's protocol (Pierce, Rockford, Ill.).

The subject of series [4] is NF-κB nuclear translocation in LNCaP cells. Described as above. The class given is cell-based, Human. The settings on record: peptide 30 min, then TNF-α 10 ng/ml 1 h. The procedure:
as §1, §2

Series [5] deals with DU145 cells. Briefly: Indirect immunofluorescence assay for peptide cellular import. It counts as cell-based, Human. The settings on record: different concentrations of peptides, 1 h at 37° C. The procedure: DU145 cells were grown on 8-well chamber slides (Nunc, Naperville, Ill.) to a confluence of 80%. These cells were then incubated with diluent or different concentrations of peptides in RPMI without serum for 1 h at 37° C. The cells were washed three times with cold PBS to remove the extracellular peptides and then fixed with 3.5% paraformaldehyde solution in PBS at 4° C. for 20 min. The fixed cells were washed three times with cold PBS and treated with 0.25% Triton X-100 for 10 min. The washed cells were then incubated with anti-peptide IgG in PBS for 1 h. After three 5 min washings with PBS, the intracellular peptides (via peptide-antibody complexes) were subsequently detected with FITC-labeled goat anti-rabbit IgG (Pierce, Rockford, Ill.) after 1 h incubation. Cover slips with stained cells were mounted in Poly/Mount (Polysciences, Warrington, Pa.) and analyzed with Microstar IV (Reichard, Buffalo, N.Y.) using a 100× oil immersion lens. The color images were analyzed using a Pixera digital camera and stored in JPG format. The same assay was also utilized for determining peptide cellular import in other cell lines, including PC3, LNCaP, and neuroblastoma N2a cells.

The next series has as its system PC3 cells. Put plainly: In vitro cytotoxicity assay (MTS). The settings on record: PC3, 30 μM, 24 h. It counts as cell-based, Human. The procedure: (§3) LNCaP, DU145, PC3, or neuroblastoma N2a cells were grown in 96-well plates to a confluence of 60%. The treatments with different concentrations of peptide were performs in quadruplicates in a total volume of 100 μl in RPMI without serum for 24 h at 37° C. The cells were then washed and incubated at 37° C. with 100 μl phenol-red free RPMI containing 20 μl of the CellTiter 96 AQueous Solution reagent (Promega, Madison, Wis.) for 1 h. The absorbency in each well was recorded at 490 nm using a Microplate Autoreader EL 309 (Bio-Tek Instruments, Winooski, Vt.). The absorbency reflects directly the number of viable cells. Blanks were subtracted from all data. The data were then analyzed using Prism software (GraphPad Software Inc., San Diego, Calif.) and expressed as a mean ±SE of three independent experiments. Statistical significance was performed by one way ANOVA and consider significant if p<0.05.

A further series has as its system LNCaP cells. Briefly: In vitro cytotoxicity assay (MTS). It counts as cell-based, Human. The settings on record: 24 h at 37° C. The procedure: as §3
Series [6] deals with DU145 cells. Put plainly: In vitro cytotoxicity assay (MTS). It counts as cell-based, Human. The settings on record: DU145, 30 μM, 24 h. As to the method: as §3
The test system of another series is neuroblastoma N2a cells. Put plainly: In vitro cytotoxicity assay (MTS). The class given is cell-based. The settings on record: 24 h at 37° C. The procedure: as §3
A short description of series [7]: Quantitative indirect immunofluorescence assay of peptide cellular import (96-well plates). The class given is cell-based. The settings on record: from time-dependent fluorescence accumulation, 1-20 h. An excerpt:
This indirect immunofluoresence assay was also utilized to quantitate peptide cellular import. Briefly, cells grown in 96-well plates will be treated with peptides for different time periods, and then subjected to an indirect immunofluorescence assay using anti-peptide antibody and FITC-labeled anti-rabbit antibody as described above. Cells were then lysed with 10% SDS and the fluorescence in the soluble cell solutions was quantified by a Cytofluor™ 2300 reader (Millipore) at 485/560 nm. The fluorescence readings were calculated by subtracting […] of peptide-untreated sample. The data were expressed as mean ±SEM of three independent experiments performed in quintuplicate samples. The kinetics of imported CB5005 peptide (SEQ ID NO: 4) was studied by using this quantitative.

Series [8] deals with DU145 cells. Briefly: Annexin V/PI fluorescence microscopy apoptosis assay. It counts as cell-based, Human. The settings on record: cisplatin 5 μg/ml alone, 5 h. As to the method:
DU145 cells were grown on 4-well chamber slides to a confluence of 70-80%. Cells were then treated with CB5005 peptide (SEQ ID NO: 4) (30 μM) or diluent for 30 min at 37° C. followed by cisplatin (5 μg/ml) for an additional 5 h. […] The chamber slides were mounted in Poly/mount (Polysciences, Warrington, Pa.) and analyzed with a fluorescence microscope (Microstar IV, Reichard, Buffalo, N.Y.) using ×100 oil immersion lens. The color images were analyzed by a Pixera digital camera and stored in JPG format.

As for “CB5003: analogous peptide possessing only a portion of the CPS (SEQ ID NO: 1) N-terminal to the NF-κB p50 NLS (LALALAVQRKRQKLMP)”, in the series with DU145 cells [1], the “sensitizing activity to cisplatin-induced apoptosis (TUNEL)” value (from here on “sensitizing activity”) is on record as “active, although at a much lower level”. The “induction of apoptosis by co-treatment with cisplatin (flow cytometry)” value in the series with DU145 cells [2] (21 h) is on record as “active but to a much less extent”. The “synergistic activity in enhancing the apoptosis induced by cisplatin (dependence on concentration)” value with DU145 cells [2] (DU145, flow cytometry) was “concentration-dependent”. The “TNF-α-induced NF-κB nuclear translocation” value in series [3] and in series [4] was “inhibited” throughout. The cellular import activity entry with DU145 cells [5] is “much weaker import activity”.
For the compound “CB5007: control peptide corresponding to CB5005 except that two basic residues in the NF-kB p50 NLS are mutated (KR-NG) (KLKLALALALAVQRNGQKLMP)”, the “sensitizing activity” value with DU145 cells [1] is reported as “not”. In addition, the “TNF-α-induced NF-κB nuclear translocation” value in series [3] and in [4] was “did not have an inhibitory effect” throughout.
`CSCC[C@H](NC(=O)[C@H](CC(C)C)NC(=O)[C@H](CCCCN)NC(=O)[C@H](CCC(N)=O)NC(=O)[C@H](CCCNC(=N)N)NC(=O)[C@H](CCCCN)NC(=O)[C@H](CCCNC(=N)N)NC(=O)[C@H](CCC(N)=O)NC(=O)[C@@H](NC(=O)[C@H](C)NC(=O)[C@H](CC(C)C)NC(=O)[C@H](C)NC(=O)[C@H](CC(C)C)NC(=O)[C@H](C)NC(=O)[C@H](CC(C)C)NC(=O)[C@H](C)NC(=O)[C@H](CC(C)C)NC(=O)[C@H](CCCCN)NC(=O)[C@H](CC(C)C)NC(=O)[C@@H](N)CCCCN)C(C)C)C(=O)N1CCC[C@H]1C(=O)O` [CB5005] (H-KLKLALALALAVQRKRQKLMP-OH; N-terminus and C-terminus assumed): the “cytotoxicity (MTS), peptide-untreated vs treated samples” value in the series with PC3 cells and with DU145 cells [6] was “Statistical significance (p<0.05)” each time. Besides, the “cytotoxicity (MTS)” value in the series with LNCaP cells was “not toxic”; with neuroblastoma N2a cells, “did not result in toxicity”. In series [7], the “stability in intracellular compartments” value is recorded as “relatively stability”.
On to `N.N.[Cl][Pt][Cl]` [cisplatin, reference compound], for which, in the series with DU145 cells [2] (cisplatin 5 μg/ml alone, 21 h), the “induction of apoptosis (flow cytometry)” value is recorded as “ineffective”. In addition, the “induction of apoptosis (annexin V-FITC staining)” value in the series on DU145 cells [8] is given as “ineffective”.
“CB5002: control peptide with a mutant, non-functional CPS located N-terminal to the NLS (LALLAPVQRKRQKLMP)”: the “sensitizing activity” value in the series with DU145 cells [1] is “not”. In addition, the “induction of apoptosis by co-treatment with cisplatin (flow cytometry)” value in the series with DU145 cells [2] (21 h) is listed as “did not show significant effect”. The cellular import activity entry in the series on DU145 cells [5] is given as “not active”.
